Results published in patent US4663320A, “(2-oxo-1,2,3,5-tetrahydroimidazo[2,1-b]quinoazolinyl)oxyalkylamides, compositions and the use thereof” (Syntex (U.S.A.) Inc., priority 1985, dated 1987).
pIC50: −log10 of the molar value. Read-outs that look alike come from different tables or passages of the source.

Legend:
[1] = system: Human platelet cyclic AMP phosphodiesterase; test: Cyclic AMP phosphodiesterase assay (human platelet); type: biochemical; conditions: for pIC50: human platelet phosphodiesterase, 1 μM cyclic AMP as substrate; for Relative Potency: relative to theophylline (assigned a value of 1) on human platelet phosphodiesterase
Protocol: (§1) The inhibition of cyclic AMP phosphodiesterase activity by the subject compounds was assayed by the method of Filburn and Karn, Analyt. Biochem., 52:505-516 (1973), using 1 μM cyclic AMP as the substrate. Human platelet cyclic AMP phosphodiesterase was obtained from human donors. Platelets were isolated and washed by centrifugation, the membranes ruptured by a sequential freeze-thaw procedure and hypotonic lysis and the soluble enzyme isolated by high speed centrifugation. The enzyme was stored in aliquots at -20° C.
(§2) This table contains the IC50 values for human platelet phosphodiesterase and IC25 values for rat heart phosphodiesterase.

Lewis Lung Carcinoma = test: Antimetastatic activity against Lewis Lung Carcinoma (Spontaneous Metastases); type: in vivo, mouse; conditions: oral 5 mg/kg every other day, day 20-21, p < 0.05
Protocol: Mice (female, C57B1/6, 16-18 gm) were inoculated subcutaneously between the inguinal and axillary areas with 0.2 ml of a freshly prepared tumor brei. Mice were treated orally with control vehicle (0.5% carboxymethylcellulose (CMC) or with test compound in suspension in 0.5% CMC. Treatments were initiated one day after tumor implantation, and continued every other day throughout the experiment. 20-21 days after initial implantation of the tumor, mice were sacrificed, weight of the primary tumor was determined, and the number of lung metastases was determined by counting under a disecting microscope. The results are shown in Table III.

Mongrel dogs = test: Inotropic activity in anesthetized dogs; type: in vivo; conditions: dog
Protocol: Mongrel dogs were anesthetized intravenously with 35 mg/Kg sodium pentobarbital and supplemented as needed. Blood pressure was measured with a Statham pressure transducer via a cannula inserted from a femoral artery into the abdominal aorta. Heart rate was recorded by a cardiotachometer from a lead II electrocardiogram. Right ventricular contractile force was recorded from a Walton-Brodie strain gauge sutured to the right ventricle following a midsternal thoracotomy. A Harvard respirator was used to ventilate the dogs with room air through an endotracheal tube. The dog was bilaterally vagotomized. Following a midline laparotomy, a cannula was sutured into the duodenum for intraduodenal administration of test compound. A femoral vein was cannulated for administration of isoproterenol. All data were recorded on a Beckman R611 Dynograph.
To assess the responsiveness of each dog, isoproterenol was given intravenously at half-log interval doses from 0.007 to 2.1 or 6.67 μg/Kg. The test compound was then administered intraduodenally, usually at a low dose of 2 mg/Kg and subsequently at higher doses of 6.32 and/or 20 mg/Kg, if necessary. In a few instances, some compounds administered intraduodenally at dose levels from 0.316 to 3.16 mg/Kg.

B16-F10 melanoma cells = test: Antimetastatic activity against B-16 Melanoma (B16-F10); type: in vivo, mouse; conditions: oral 5 mg/kg every other day, day 20-21, control 23, p ≤ 0.01
Protocol: (§3) Mice (female, C57B1/6, 16-18 gm) were injected intravenously with either 7.5×10^4 viable B16-BL6 or B16-F10 melanoma cells, as indicated. The mice were orally treated with vehicle or drug, starting one day after tumor cell injection, and continuing every other day until the mice were sacrificed 20-21 days after tumor cell inoculation. The number of lung metastases was determined as described above, and the results are shown in Table IV (B16-BL6) or Table V (B16-F10).

[2] = system: rat heart phosphodiesterase; test: Cyclic AMP phosphodiesterase inhibition (rat heart); type: biochemical
Protocol: as §1, §2

male mice (Sim:(ICR)fBR) = test: Acute and delayed toxicity in mice; type: in vivo; conditions: deaths/animals
Protocol: (§4) Three groups of three male mice (Sim:(ICR)fBR) in a weight range of 20 to 24 grams were used in this study. N-cyclohexyl-N-methyl-4-(2-oxo-1,2,3,5-tetrahydroimidazo[2,1-b]quinazolin- 7-yl)oxy-butyramide was administered intraperitoneally as an aqueous suspension (polysorbate 80).
(§5) When the test compound was administered orally, also as an aqueous suspension (polysorbate 80), the results are as follows: […]

[3] = Acute and delayed toxicity in mice; type: in vivo; conditions: mouse, in vivo, mice, aqueous suspension (polysorbate 80)
Protocol: as §4, §5

B16-BL6 melanoma cells = test: Antimetastatic activity against B-16 Melanoma (B16-BL6); type: in vivo, mouse; conditions: oral 5 mg/kg every other day, day 20-21, control 10, p ≤ 0.02
Protocol: as §3

## CN(C(=O)CCCOc1ccc2c(c1)CN1CC(=O)NC1=N2)C1CCCCC1 [N-cyclohexyl-N-methyl-4-(2-oxo-1,2,3,5-tetrahydroimidazo[2,1-b]quinazolin-7-yl)oxybutyramide]
[1]
  pIC50: 7.90
  Relative Potency: 21,600
Lewis Lung Carcinoma; control 28
  Pulmonary Metastases Median: 10.5
Lewis Lung Carcinoma; ± S.E., control 5.1 ± 0.4
  Size of Primary Tumor: 3.9 ± 0.4 gm
Mongrel dogs; intraduodenal, 2 mg/kg
  Blood Pressure, peak effect as % of max. isoproterenol: 25%
  Heart Rate, peak effect as % of max. isoproterenol: 30%
  Rt. Ventricular Contractile Force, peak effect as % of max. isoproterenol: 48%
Mongrel dogs; intraduodenal, 6.23 mg/kg
  Blood Pressure, peak effect as % of max. isoproterenol: 96%
  Heart Rate, peak effect as % of max. isoproterenol: 40%
  Rt. Ventricular Contractile Force, peak effect as % of max. isoproterenol: 44%
B16-F10 melanoma cells
  Pulmonary Metastases Median: 1.5
[2]
  Rat Heart IC25: 260 nM
Male mice (Sim:(ICR)fBR); intraperitoneal, 500 mg/Kg
  Death: 0/3
Male mice (Sim:(ICR)fBR); intraperitoneal, 1,000 mg/Kg
  Death: 0/3
Male mice (Sim:(ICR)fBR); intraperitoneal, 1,500 mg/Kg
  Death: 0/3
Male mice (Sim:(ICR)fBR); oral, 500 mg/Kg
  Death: 0/3
Male mice (Sim:(ICR)fBR); oral, 1,000 mg/Kg
  Death: 0/3
Male mice (Sim:(ICR)fBR); oral, 1,500 mg/Kg
  Death: 0/3
[3]; ip, intraperitoneal, read-out: LD50 (intraperitoneal)
  LD50: > 1500 mg/kg
[3]; oral, read-out: LD50 (oral)
  LD50: > 1500 mg/kg
B16-BL6 melanoma cells
  Pulmonary Metastases Median: 3

## C[C@@H]1C(=O)NC2=Nc3ccc(OCCCC(=O)N(C)C4CCCCC4)cc3CN21 [N-cyclohexyl-N-methyl-4-(2-oxo-3-D-methyl-1,2,3,5-tetrahydroimidazo[2,1-b]quinazolin-7-yl)oxybutyramide]
[1]
  pIC50: 8.27
  Relative Potency: 50,000
Mongrel dogs; i.v., 0.1 mg/kg
  Blood Pressure, peak effect as % of max. isoproterenol: 82%
  Heart Rate, peak effect as % of max. isoproterenol: 73%
  Rt. Ventricular Contractile Force, peak effect as % of max. isoproterenol: 43%
Mongrel dogs; intraduodenal, 0.316 mg/kg
  Blood Pressure, peak effect as % of max. isoproterenol: 13%
  Heart Rate, peak effect as % of max. isoproterenol: 18%
  Rt. Ventricular Contractile Force, peak effect as % of max. isoproterenol: 18%
Mongrel dogs; intraduodenal, 1.0 mg/kg
  Blood Pressure, peak effect as % of max. isoproterenol: 49%
  Heart Rate, peak effect as % of max. isoproterenol: 48%
  Rt. Ventricular Contractile Force, peak effect as % of max. isoproterenol: 50%
Mongrel dogs; intraduodenal, 3.16 mg/kg
  Blood Pressure, peak effect as % of max. isoproterenol: 82%
  Heart Rate, peak effect as % of max. isoproterenol: 72%
  Rt. Ventricular Contractile Force, peak effect as % of max. isoproterenol: 53%
[2]
  Rat Heart IC25: 27 nM
